Several values for one entry are separate records, joined by “and”; a condition that tells them apart may be missing. Equal values may be shown once. Read-outs that look alike come from different tables or passages of the source.
How the values were obtained:
Experiment in all cases: qHTS cell viability (CellTiter-Glo, 72 h; primary and follow-up small molecule screen)
Type in all cases: cell-based, human
[1] = system: MCC13 cells (VN-MCC)
[2] = system: MCC26 cells (VN-MCC)
[3] = system: UISO cells (VN-MCC)
[4] = system: WAGA cells (VP-MCC)
[5] = system: MKL-1 cells (VP-MCC)
[6] = system: MKL-2 cells (VP-MCC)
[7] = follow-up screen, MCC13, replicate 1
[8] = follow-up screen, MCC13, replicate 2
[9] = follow-up screen, MCC13, replicate 3
[10] = follow-up screen, MCC26, replicate 1
[11] = follow-up screen, MCC26, replicate 2
[12] = follow-up screen, MCC26, replicate 3
[13] = follow-up screen, UISO, replicate 1
[14] = follow-up screen, UISO, replicate 2
[15] = follow-up screen, UISO, replicate 3
[16] = follow-up screen, WAGA, replicate 1
[17] = follow-up screen, WAGA, replicate 2
[18] = follow-up screen, WAGA, replicate 3
[19] = follow-up screen, MKL-1, replicate 1
[20] = follow-up screen, MKL-1, replicate 2
[21] = follow-up screen, MKL-1, replicate 3
[22] = follow-up screen, MKL-2, replicate 1
[23] = follow-up screen, MKL-2, replicate 2
[24] = follow-up screen, MKL-2, replicate 3

SMILES | Area under the dose-response curve (AUC) MCC13 Replicate 1 [1] | Area under the dose-response curve (AUC) MCC13 Replicate 2 [1] | Area under the dose-response curve (AUC) MCC13 Replicate 3 [1] | Area under the dose-response curve (AUC) MCC26 Replicate 1 [2] | Area under the dose-response curve (AUC) MCC26 Replicate 2 [2] | Area under the dose-response curve (AUC) MCC26 Replicate 3 [2] | Area under the dose-response curve (AUC) UISO Replicate 1 [3] | Area under the dose-response curve (AUC) UISO Replicate 2 [3] | Area under the dose-response curve (AUC) UISO Replicate 3 [3] | Area under the dose-response curve (AUC) WAGA Replicate 1 [4] | Area under the dose-response curve (AUC) WAGA Replicate 2 [4] | Area under the dose-response curve (AUC) WAGA Replicate 3 [4] | Area under the dose-response curve (AUC) MKL-1 Replicate 1 [5] | Area under the dose-response curve (AUC) MKL-1 Replicate 2 [5] | Area under the dose-response curve (AUC) MKL-1 Replicate 3 [5] | Area under the dose-response curve (AUC) MKL-2 Replicate 1 [6] | Area under the dose-response curve (AUC) MKL-2 Replicate 2 [6] | Area under the dose-response curve (AUC) MKL-2 Replicate 3 [6] | further results
O.O=c1c2ccc(O)c(O)c2oc2c(O)c(O)ccc12 [3,4,5,6-Tetrahydroxyxanthone hydrate] | – | – | – | – | – | – | – | – | – | – | – | – | – | – | – | – | – | – | Area under the dose-response curve (AUC) [1]: 500.0 and 470.6 and 462.5; Area under the dose-response curve (AUC) [2]: 448.2 and 449.4 and 459.1; Area under the dose-response curve (AUC) [3]: 455.2 and 451.1 and 430.7; Area under the dose-response curve (AUC) [4]: 510.8 and 453.0 and 432.4; Area under the dose-response curve (AUC) [5]: 474.6 and 473.6 and 453.4; Area under the dose-response curve (AUC) [6]: 454.0 and 468.2 and 444.8
CC[C@@]1(O)C(=O)OCc2c1cc1n(c2=O)Cc2cc3cc(O)ccc3nc2-1 [10-hydroxycamptothecin] | 287.3 | 291.9 | 277.2 | 260.5 | 244.0 | 250.0 | 187.9 | 199.3 | 183.4 | 195.8 | 197.2 | 184.4 | 214.0 | 217.0 | 223.0 | 184.7 | 164.5 | 246.0 | –
Nc1ncnc2c1ncn2[C@@H]1O[C@H](CO)[C@@H](O)[C@H]1O [Adenosine] | – | – | – | – | – | – | – | – | – | – | – | – | – | – | – | – | – | – | Area under the dose-response curve (AUC) MCC13 Replicate 1 [1, 7]: 550.6; Area under the dose-response curve (AUC) MCC13 Replicate 2 [1, 8]: 498.0; Area under the dose-response curve (AUC) MCC13 Replicate 3 [1, 9]: 487.2; Area under the dose-response curve (AUC) MCC26 Replicate 1 [2, 10]: 484.4; Area under the dose-response curve (AUC) MCC26 Replicate 2 [2, 11]: 450.7; Area under the dose-response curve (AUC) MCC26 Replicate 3 [2, 12]: 501.0; Area under the dose-response curve (AUC) UISO Replicate 1 [3, 13]: 514.9; Area under the dose-response curve (AUC) UISO Replicate 2 [3, 14]: 502.8; Area under the dose-response curve (AUC) UISO Replicate 3 [3, 15]: 486.4; Area under the dose-response curve (AUC) WAGA Replicate 1 [4, 16]: 557.9; Area under the dose-response curve (AUC) WAGA Replicate 2 [4, 17]: 476.1; Area under the dose-response curve (AUC) WAGA Replicate 3 [4, 18]: 490.2; Area under the dose-response curve (AUC) MKL-1 Replicate 1 [5, 19]: 523.5; Area under the dose-response curve (AUC) MKL-1 Replicate 2 [5, 20]: 521.0; Area under the dose-response curve (AUC) MKL-1 Replicate 3 [5, 21]: 519.8; Area under the dose-response curve (AUC) MKL-2 Replicate 1 [6, 22]: 483.1; Area under the dose-response curve (AUC) MKL-2 Replicate 2 [6, 23]: 500.4; Area under the dose-response curve (AUC) MKL-2 Replicate 3 [6, 24]: 489.0
CCC(=O)CCCCC[C@@H]1NC(=O)[C@H]2CCCCN2C(=O)[C@H]([C@@H](C)CC)NC(=O)[C@H](Cc2cn(OC)c3ccccc23)NC1=O [Apicidin] | 352.8 | 341.2 | 320.0 | 312.3 | 327.5 | 296.4 | 287.8 | 286.2 | 272.4 | 264.4 | 253.3 | 235.6 | 315.8 | 299.2 | 285.0 | 250.3 | 267.1 | 303.9 | –
COc1ccc(C(=O)CC(=O)c2ccc(C(C)(C)C)cc2)cc1 [Avobenzone] | – | – | – | – | – | – | – | – | – | – | – | – | – | – | – | – | – | – | Area under the dose-response curve (AUC) MCC13 Replicate 1 [1, 7]: 464.5; Area under the dose-response curve (AUC) MCC13 Replicate 2 [1, 8]: 464.7; Area under the dose-response curve (AUC) MCC13 Replicate 3 [1, 9]: 487.0; Area under the dose-response curve (AUC) MCC26 Replicate 1 [2, 10]: 418.2; Area under the dose-response curve (AUC) MCC26 Replicate 2 [2, 11]: 424.5; Area under the dose-response curve (AUC) MCC26 Replicate 3 [2, 12]: 411.6; Area under the dose-response curve (AUC) UISO Replicate 1 [3, 13]: 448.1; Area under the dose-response curve (AUC) UISO Replicate 2 [3, 14]: 466.1; Area under the dose-response curve (AUC) UISO Replicate 3 [3, 15]: 426.5; Area under the dose-response curve (AUC) WAGA Replicate 1 [4, 16]: 495.5; Area under the dose-response curve (AUC) WAGA Replicate 2 [4, 17]: 492.2; Area under the dose-response curve (AUC) WAGA Replicate 3 [4, 18]: 489.4; Area under the dose-response curve (AUC) MKL-1 Replicate 1 [5, 19]: 452.4; Area under the dose-response curve (AUC) MKL-1 Replicate 2 [5, 20]: 457.3; Area under the dose-response curve (AUC) MKL-1 Replicate 3 [5, 21]: 467.2; Area under the dose-response curve (AUC) MKL-2 Replicate 1 [6, 22]: 491.6; Area under the dose-response curve (AUC) MKL-2 Replicate 2 [6, 23]: 475.6; Area under the dose-response curve (AUC) MKL-2 Replicate 3 [6, 24]: 463.7
O=C(O)CC(C(=O)O)n1c(O)c(C2=c3cc(Br)ccc3=NC2=O)sc1=S (stereo not drawn) [BCL6 Inhibitor] | – | – | – | – | – | – | – | – | – | – | – | – | – | – | – | – | – | – | Area under the dose-response curve (AUC) [1]: 512.5 and 484.7 and 473.4; Area under the dose-response curve (AUC) [2]: 463.9 and 441.3 and 491.7; Area under the dose-response curve (AUC) [3]: 463.7 and 453.9 and 421.4; Area under the dose-response curve (AUC) [4]: 531.4 and 497.2 and 476.9; Area under the dose-response curve (AUC) [5]: 525.6 and 554.1 and 496.0; Area under the dose-response curve (AUC) [6]: 493.8 and 494.8 and 466.7
O=C1Nc2cc(Br)ccc2/C1=C1/Nc2ccccc2/C1=N\O [BIO] | 481.8 | 449.1 | 449.8 | 419.0 | 405.4 | 424.1 | 266.6 | 275.6 | 251.6 | 533.5 | 491.3 | 474.9 | 450.0 | 447.7 | 422.6 | 490.0 | 435.9 | 463.9 | –
